Experiments:
[1] = cited from earlier work
[2] = system: participants with SSc-RP; assay: Average daily Raynaud's Condition Score (RCS); type: in vivo, human; set-up: key to Average Daily RCS, Mean / Average Daily RCS, Median / Average Daily RCS Change from Baseline, Mean / Average Daily RCS Change from Baseline, Median: RCS rated on a 0-10 cm VAS scale; conditions: ITT Population - Part A; for Average Daily RCS, Mean / Average Daily RCS, Median: dosing period
Description: The RCS is based on how much difficulty participants had with Raynaud's today, how many attacks the participant had, and how long they lasted. In addition participants were and will be asked to consider how much pain, numbness, or other symptoms the Raynaud's caused in fingers (including painful sores), and how much the Raynaud's along affected the use of hand today (VAS 0-10 cm scale).
The absolute change in average daily RCS from baseline to the end of each dosing period was and will be a secondary outcome variable. The sponsor-developed participant-informed diary has been and will be used to record data. The average daily RCS is defined as the total RCS divided by the number of days with available diary data of each dosing period. Total RCS during screening period divided by the number of days with available data will be used as baseline for the analysis of all periods. If there are multiple daily RCS scores, the latest daily RCS will be used. The variable will be calculated similar to frequency data as before.

[3] = cilnidipine given orally; cited from earlier work
[4] = system: participants with SSc-RP; assay: Summary of data: dose response / overall response (Table S); type: in vivo, human; conditions: 20 mg dose group
[5] = Excluding Outliers, dose cilnidipine 10 mg, tadalafil 5 mg, alone or combined as labelled
[6] = Excluding Outliers, dose cilnidipine 20 mg, tadalafil 5 mg, alone or combined as labelled
[7] = Excluding Outliers, pooled arms Cilnidipine 10 mg and Cilnidipine 10 mg + Tadalafil 5 mg
[8] = Excluding Outliers, pooled arms Cilnidipine 20 mg and Cilnidipine 20 mg + Tadalafil 5 mg
[9] = Excluding Outliers, pooled cilnidipine 10 mg and 20 mg arms (combination: + tadalafil 5 mg)
[10] = dose cilnidipine 10 mg, tadalafil 5 mg, alone or combined as labelled
[11] = dose cilnidipine 20 mg, tadalafil 5 mg, alone or combined as labelled
[12] = pooled arms Cilnidipine 10 mg and Cilnidipine 10 mg + Tadalafil 5 mg
[13] = pooled arms Cilnidipine 20 mg and Cilnidipine 20 mg + Tadalafil 5 mg
[14] = pooled cilnidipine 10 mg and 20 mg arms (combination: + tadalafil 5 mg)

For `COCCOC(=O)C1=C(C)NC(C)=C(C(=O)OC/C=C/c2ccccc2)C1c1cccc([N+](=O)[O-])c1` (stereo not shown) [Cilnidipine], the CL/F ([1]; 10 mg Cilnidipine, Healthy Volunteers, single oral dose, mean) is listed as 304.7 L/h, the “time to achieve maximal plasma concentrations (Tmax)” value ([1]; oral dosing) is listed as ≤ 2 h and the “Average Daily RCS Change from Baseline, Mean” value [2, 5] is listed as −0.98. The “Average Daily RCS Change from Baseline, Median” value [2, 5] was −0.98, the “Average Daily RCS Percent Change from Baseline, Mean” value [2, 5] was −35.74% and the “Average Daily RCS Percent Change from Baseline, Median” value [2, 5] was −35.74%. The “Average Daily RCS Change from Baseline, Mean” value [2, 6] was −0.45, the “Average Daily RCS Change from Baseline, Median” value [2, 6] was −0.45 and the “Average Daily RCS Percent Change from Baseline, Mean” value [2, 6] was −17.16%. For the same molecule, the “Average Daily RCS Percent Change from Baseline, Median” value [2, 6] was −17.16%, the “Average Daily RCS, Mean” value [2, 5] was 1.76 and the “Average Daily RCS, Median” value [2, 5] was 1.76. The “Average Daily RCS, Mean” value [2, 6] was 2.90, the “Average Daily RCS, Median” value [2, 6] was 2.90 and the “Average Daily RCS, Mean” value [2, 7] was 2.43. The “Average Daily RCS, Median” value [2, 7] was 1.76, the “Average Daily RCS, Mean” value [2, 8] was 3.60 and the “Average Daily RCS, Median” value [2, 8] was 3.82. For the same molecule, the “Average Daily RCS, Mean” value [2, 9] was 2.52, the “Average Daily RCS, Median” value [2, 9] was 1.76 and the “Average Daily RCS Change from Baseline, Mean” value [2, 7] was −1.64. For the same molecule, the “Average Daily RCS Change from Baseline, Median” value [2, 7] was −1.51, the “Average Daily RCS Percent Change from Baseline, Mean” value [2, 7] was −41.77% and the “Average Daily RCS Percent Change from Baseline, Median” value [2, 7] was −36.47%. The “Average Daily RCS Change from Baseline, Mean” value [2, 8] was −1.08, the “Average Daily RCS Change from Baseline, Median” value [2, 8] was −0.59 and the “Average Daily RCS Percent Change from Baseline, Mean” value [2, 8] was −18.93%. The “Average Daily RCS Percent Change from Baseline, Median” value [2, 8] was −20.71%, the “Average Daily RCS Change from Baseline, Mean” value [2, 9] was −0.63 and the “Average Daily RCS Change from Baseline, Median” value [2, 9] was −0.98. For the same molecule, the “Average Daily RCS Percent Change from Baseline, Mean” value [2, 9] was −23.35%, the “Average Daily RCS Percent Change from Baseline, Median” value [2, 9] was −35.74% and the “Average Daily RCS Change from Baseline, Mean” value [2, 10] was −0.98. For the same molecule, the “Average Daily RCS Change from Baseline, Median” value [2, 10] was −0.98, the “Average Daily RCS Percent Change from Baseline, Mean” value [2, 10] was −35.74% and the “Average Daily RCS Percent Change from Baseline, Median” value [2, 10] was −35.74%. The “Average Daily RCS Change from Baseline, Mean” value [2, 11] was −0.45, the “Average Daily RCS Change from Baseline, Median” value [2, 11] was −0.45 and the “Average Daily RCS Percent Change from Baseline, Mean” value [2, 11] was −17.16%. For the same molecule, the “Average Daily RCS Percent Change from Baseline, Median” value [2, 11] was −17.16%, the “Average Daily RCS, Mean” value [2, 10] was 1.76 and the “Average Daily RCS, Median” value [2, 10] was 1.76. For the same molecule, the “Average Daily RCS, Mean” value [2, 11] was 2.90, the “Average Daily RCS, Median” value [2, 11] was 2.90 and the “Average Daily RCS, Mean” value [2, 12] was 2.43. For the same molecule, the “Average Daily RCS, Median” value [2, 12] was 1.76, the “Average Daily RCS, Mean” value [2, 13] was 3.60 and the “Average Daily RCS, Median” value [2, 13] was 3.82. For the same molecule, the “Average Daily RCS, Mean” value [2, 14] was 2.52, the “Average Daily RCS, Median” value [2, 14] was 1.76 and the “Average Daily RCS Change from Baseline, Mean” value [2, 12] was −1.64. For the same molecule, the “Average Daily RCS Change from Baseline, Median” value [2, 12] was −1.51, the “Average Daily RCS Percent Change from Baseline, Mean” value [2, 12] was −41.77% and the “Average Daily RCS Percent Change from Baseline, Median” value [2, 12] was −36.47%. For the same molecule, the “Average Daily RCS Change from Baseline, Mean” value [2, 13] was −1.08, the “Average Daily RCS Change from Baseline, Median” value [2, 13] was −0.59 and the “Average Daily RCS Percent Change from Baseline, Mean” value [2, 13] was −18.93%. The “Average Daily RCS Percent Change from Baseline, Median” value [2, 13] was −20.71%, the “Average Daily RCS Change from Baseline, Mean” value [2, 14] was −0.63 and the “Average Daily RCS Change from Baseline, Median” value [2, 14] was −0.98. The “Average Daily RCS Percent Change from Baseline, Mean” value [2, 14] was −23.35%, the “Average Daily RCS Percent Change from Baseline, Median” value [2, 14] was −35.74% and the protein bound [3] was 98%. For the same molecule, the “Efficacy seen: overall response” value [4] was “shows best overall”.

Source: patent US20240358692A1, “TREATMENT OF SCLERODERMA” (Aisa Pharma, Inc., priority 2023, published 2024)
